Source: ChEMBL document CHEMBL1255175, “Synthesis, antimicrobial, and mosquito larvicidal activity of 1-aryl-4-methyl-3,6-bis-(5-methylisoxazol-3-yl)-2-thioxo-2,3,6,10b-tetrahydro-1H-pyrimido[5,4-c]quinolin-5-ones” (2010)
≈ marks a conversion by molar mass, not a printed value.

Assays:
Format in all cases: functional
[1] = system: Fusarium verticillioides; assay: Antifungal activity against Fusarium moniliforme MTCC 1848 at 30 ug/ml; details: read-out: DIZ
[2] = system: Fusarium verticillioides; assay: Antifungal activity against Fusarium moniliforme MTCC 1848 at 100 ug/ml; details: read-out: DIZ
[3] = system: Pseudomonas aeruginosa; assay: Antimicrobial activity against Pseudomonas aeruginosa MTCC 741
[4] = system: Curvularia lunata; assay: Antifungal activity against Curvularia lunata MTCC 2030 at 30 ug/ml; details: read-out: DIZ
[5] = system: Staphylococcus aureus; assay: Antimicrobial activity against Staphylococcus aureus MTCC 96
[6] = system: Culex quinquefasciatus; assay: Insecticidal activity against Culex quinquefasciatus 4th instar larvae; details: for LC50: Culex quinquefasciatus
[7] = system: Bacillus subtilis; assay: Antimicrobial activity against Bacillus subtilis MTCC 441
[8] = system: Aspergillus niger; assay: Antifungal activity against Aspergillus niger MTCC 282 at 30 ug/ml; details: read-out: DIZ
[9] = system: Klebsiella aerogenes; assay: Antimicrobial activity against Klebsiella aerogenes MTCC 39
[10] = system: Rhizopus arrhizus; assay: Antifungal activity against Rhizopus oryzae MTCC 262 at 100 ug/ml; details: read-out: DIZ
[11] = Antifungal activity against Chrysosporium tropicum MTCC 2821 at 30 ug/ml
[12] = system: Curvularia lunata; assay: Antifungal activity against Curvularia lunata MTCC 2030 at 100 ug/ml; details: read-out: DIZ
[13] = system: Chromobacterium violaceum; assay: Antimicrobial activity against Chromobacterium violaceum MTCC 2656
[14] = system: Lysinibacillus sphaericus; assay: Antimicrobial activity against Bacillus sphaericus MTCC 511
[15] = system: Rhizopus arrhizus; assay: Antifungal activity against Rhizopus oryzae MTCC 262 at 30 ug/ml; details: read-out: DIZ
[16] = system: Aspergillus niger; assay: Antifungal activity against Aspergillus niger MTCC 282 at 100 ug/ml; details: read-out: DIZ
[17] = Antifungal activity against Chrysosporium tropicum MTCC 2821 at 100 ug/ml

Compound	zone of inhibition at 30 µg/mL [1]	zone of inhibition at 100 µg/mL [2]	MIC [3]	zone of inhibition at 30 µg/mL [4]	MIC [5]	LC90 [6]	LC50 [6]	MIC [7]	zone of inhibition at 30 µg/mL [8]	MIC [9]	zone of inhibition at 100 µg/mL [10]	inhibition zone (IZ) [11]	zone of inhibition at 100 µg/mL [12]	MIC [13]	MIC [14]	zone of inhibition at 30 µg/mL [15]	zone of inhibition at 100 µg/mL [16]	inhibition zone (IZ) [17]
COc1ccc(N2C(=S)N(c3cc(C)on3)C(C)=C3C(=O)N(c4cc(C)on4)c4ccccc4C32)cc1 (stereo not given)	35 mm	60 mm	15 mg/L (≈ 29.2 µM)	40 mm	10 mg/L (≈ 19.5 µM)	3.65 mg/L (≈ 7.11 µM)	2.09 mg/L (≈ 4.07 µM)	20 mg/L (≈ 38.9 µM)	35 mm	14 mg/L (≈ 27.3 µM)	65 mm	40 mm	60 mm	18 mg/L (≈ 35 µM)	15 mg/L (≈ 29.2 µM)	45 mm	60 mm	
CC1=C2C(=O)N(c3cc(C)on3)c3ccccc3C2N(c2ccc(Cl)cc2)C(=S)N1c1cc(C)on1 (stereo not given)	30 mm	45 mm	20 mg/L (≈ 38.6 µM)	35 mm	15 mg/L (≈ 29 µM)	4 mg/L (≈ 7.72 µM)	1.01 mg/L (≈ 1.95 µM)	16 mg/L (≈ 30.9 µM)	25 mm	15 mg/L (≈ 29 µM)	50 mm	30 mm	50 mm	13 mg/L (≈ 25.1 µM)	15 mg/L (≈ 29 µM)	40 mm	40 mm	45 mm
CC1=C2C(=O)N(c3cc(C)on3)c3ccccc3C2N(Cc2ccccc2)C(=S)N1c1cc(C)on1 (stereo not given)	32 mm	55 mm	20 mg/L (≈ 40.2 µM)	30 mm	25 mg/L (≈ 50.2 µM)	1.59 mg/L (≈ 3.2 µM)	2.27 mg/L (≈ 4.56 µM)	22 mg/L (≈ 44.2 µM)	31 mm	15 mg/L (≈ 30.1 µM)	59 mm	30 mm	55 mm	18 mg/L (≈ 36.2 µM)	18 mg/L (≈ 36.2 µM)	35 mm	61 mm	
Clc1ccccc1C(c1ccccc1)(c1ccccc1)n1ccnc1 [CLOTRIMAZOLE]		25 mm									33 mm		35 mm				26 mm	30 mm
O=C(O)c1cn(C2CC2)c2cc(N3CCNCC3)c(F)cc2c1=O [CIPROFLOXACIN]			30 mg/L (≈ 90.5 µM)					20 mg/L (≈ 60.4 µM)						25 mg/L (≈ 75.4 µM)	20 mg/L (≈ 60.4 µM)			
CC1=C2C(=O)N(c3cc(C)on3)c3ccccc3C2N(c2ccc(Br)cc2)C(=S)N1c1cc(C)on1 (stereo not given)	25 mm	40 mm	9 mg/L (≈ 16 µM)	35 mm	9 mg/L (≈ 16 µM)	1.8 mg/L (≈ 3.2 µM)	0.88 mg/L (≈ 1.56 µM)	6 mg/L (≈ 10.7 µM)	40 mm	7 mg/L (≈ 12.4 µM)	45 mm	25 mm	45 mm	5 mg/L (≈ 8.89 µM)	8 mg/L (≈ 14.2 µM)	39 mm	50 mm	45 mm
CC1=C2C(=O)N(c3cc(C)on3)c3ccccc3C2N(c2ccccc2Cl)C(=S)N1c1cc(C)on1 (stereo not given)	30 mm	45 mm	5 mg/L (≈ 9.65 µM)	40 mm	9 mg/L (≈ 17.4 µM)	1 mg/L (≈ 1.93 µM)	0.98 mg/L (≈ 1.89 µM)	8 mg/L (≈ 15.4 µM)	30 mm	8 mg/L (≈ 15.4 µM)	50 mm	25 mm	55 mm	6 mg/L (≈ 11.6 µM)	10 mg/L (≈ 19.3 µM)	35 mm	55 mm	40 mm
CC1=C2C(=O)N(c3cc(C)on3)c3ccccc3C2N(c2ccccc2)C(=S)N1c1cc(C)on1 (stereo not given)	30 mm	45 mm	20 mg/L (≈ 41.4 µM)	35 mm	15 mg/L (≈ 31 µM)	3.1 mg/L (≈ 6.41 µM)	1.02 mg/L (≈ 2.11 µM)	19 mg/L (≈ 39.3 µM)	25 mm	13 mg/L (≈ 26.9 µM)	50 mm	30 mm	40 mm	18 mg/L (≈ 37.2 µM)	15 mg/L (≈ 31 µM)	40 mm	45 mm	45 mm
CC1=C2C(=O)N(c3cc(C)on3)c3ccccc3C2N(c2ccc(C)cc2)C(=S)N1c1cc(C)on1 (stereo not given)	45 mm	60 mm	10 mg/L (≈ 20.1 µM)	45 mm	10 mg/L (≈ 20.1 µM)	2.41 mg/L (≈ 4.84 µM)	0.85 mg/L (≈ 1.71 µM)	16 mg/L (≈ 32.2 µM)	40 mm	8 mg/L (≈ 16.1 µM)	65 mm	40 mm	65 mm	6 mg/L (≈ 12.1 µM)	11 mg/L (≈ 22.1 µM)	45 mm	60 mm	
COc1cccc(N2C(=S)N(c3cc(C)on3)C(C)=C3C(=O)N(c4cc(C)on4)c4ccccc4C32)c1 (stereo not given)	35 mm	60 mm	8 mg/L (≈ 15.6 µM)	35 mm	12 mg/L (≈ 23.4 µM)	2.41 mg/L (≈ 4.69 µM)	1.25 mg/L (≈ 2.43 µM)	18 mg/L (≈ 35 µM)	20 mm	13 mg/L (≈ 25.3 µM)	65 mm	28 mm	55 mm	11 mg/L (≈ 21.4 µM)	18 mg/L (≈ 35 µM)	40 mm	40 mm	40 mm
